Earlier results as cited in patent publication US8916340B2, “Method for identifying and validating dominant T helper cell epitopes using an HLA-DM-assisted class II binding assay” (The John Hopkins University, priority 2006, dated 2014).

Target: HLA-DR1 (Homo sapiens, UniProt P01903+P01911)
Details: short-lived, DM-sensitive complex of peptide with HLA-DR1

Sequence of HLA-DR1 (P01903 26-216, other chains not shown): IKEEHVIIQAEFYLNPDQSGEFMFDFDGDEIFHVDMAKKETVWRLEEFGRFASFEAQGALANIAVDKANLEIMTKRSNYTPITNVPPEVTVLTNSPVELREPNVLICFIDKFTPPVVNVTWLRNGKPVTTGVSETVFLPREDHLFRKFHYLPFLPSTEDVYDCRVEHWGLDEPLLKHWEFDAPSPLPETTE

For PKAVKQNTLKLAT [HAy308A], the “t1/2 of complex with HLA-DR1” value is given as 34 min.
